The source of these data is patent US11466010B2, “Toll-like receptor 8 (TLR8) specific antagonists and methods of making and uses thereof” (The Regents of the University of Colorado, a body corporate, priority 2017, dated 2022).

One assay concerns the target T1, mouse TLR9 (Mus musculus, UniProt Q9EQU3).
T1 construct: endogenous in cells; host or cells: primary splenocytes from hTLR8tg/TLR7-KO mice
T1 sequence (Q9EQU3 26-1032): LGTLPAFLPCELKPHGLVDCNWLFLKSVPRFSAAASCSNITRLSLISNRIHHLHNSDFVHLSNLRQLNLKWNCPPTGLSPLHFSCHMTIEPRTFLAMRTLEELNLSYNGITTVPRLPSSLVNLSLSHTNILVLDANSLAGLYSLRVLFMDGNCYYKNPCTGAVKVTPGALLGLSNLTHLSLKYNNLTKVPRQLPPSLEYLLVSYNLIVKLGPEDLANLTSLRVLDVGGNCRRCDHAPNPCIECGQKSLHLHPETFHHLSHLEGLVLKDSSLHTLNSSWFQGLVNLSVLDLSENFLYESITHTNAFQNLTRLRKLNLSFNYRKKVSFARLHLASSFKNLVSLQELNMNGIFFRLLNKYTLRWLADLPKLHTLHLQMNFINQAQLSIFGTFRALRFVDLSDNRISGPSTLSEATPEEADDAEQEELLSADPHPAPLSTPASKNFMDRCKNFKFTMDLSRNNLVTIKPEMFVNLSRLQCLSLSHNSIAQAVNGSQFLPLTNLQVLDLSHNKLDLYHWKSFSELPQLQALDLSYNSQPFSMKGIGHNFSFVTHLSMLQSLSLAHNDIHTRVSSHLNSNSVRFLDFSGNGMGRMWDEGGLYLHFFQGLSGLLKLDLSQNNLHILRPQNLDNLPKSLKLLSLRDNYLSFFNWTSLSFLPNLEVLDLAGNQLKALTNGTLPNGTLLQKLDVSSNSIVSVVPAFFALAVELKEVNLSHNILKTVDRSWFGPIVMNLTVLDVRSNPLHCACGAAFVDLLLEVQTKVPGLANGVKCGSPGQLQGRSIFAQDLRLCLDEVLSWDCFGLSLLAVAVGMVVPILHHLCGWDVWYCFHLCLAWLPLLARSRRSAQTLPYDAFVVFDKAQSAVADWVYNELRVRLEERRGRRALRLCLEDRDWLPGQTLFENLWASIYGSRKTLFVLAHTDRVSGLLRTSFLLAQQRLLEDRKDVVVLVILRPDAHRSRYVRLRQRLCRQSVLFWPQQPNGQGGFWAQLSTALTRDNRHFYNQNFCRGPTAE
Briefly: IL-12p40 production in splenocytes from hTLR8tg/TLR7-KO mice, TLR9 agonist 1018. The following applies: 1018 7.1 ug/mL, 48 hours. Format: cell-based. The procedure: Activity on primary mouse splenocytes: To assess TLR8 and TLR9 activity, spleens were isolated from TLR7 knock-out mice harboring a human TLR8 transgene (hTLR8tg/TLR7-KO). Splenocytes were prepared by dissociation through a cell strainer and removal of red blood cells with lysis buffer. Splenocytes were incubated with a dilution series of compounds and a constant amount of a TLR8 agonist (RNA oligonucleotide ORN8L) or a TLR9 agonist (CpG-containing phosphorothioate DNA oligonucleotide 1018). After 48 hours, culture supernatants were collected and analyzed for IL-12p40 production. Curves represent activity from a single spleen.

Assay [1] has as its system TLR8 downstream proteins (p65, p-IRAK4, TRAF3, TRIF, IRF3). Briefly: Immunoblotting of TLR downstream signaling proteins in THP-1 cells treated with R848. Format: cell-based, human. The procedure: Immunoblotting: THP-1 cells were seeded in 6-well plates with a density of 2×10^6 cells/well in RPMI 1640 medium supplemented with 10% FBS, 100 U/mL penicillin, 100 μg/mL streptomycin (PenStrep), 2 mM L-glutamine, and 0.05 mM 2-mercaptoethanol. THP-1 cells were treated with phorbol-12-myristate-13-acetate (PMA) (100 ng/mL) and incubated in humidified incubators containing 5% CO2 at 37° C. for 24 h. […] After incubation of 2 h, THP-1 cells were collected, nuclear protein fraction was extracted using NE-PER Nuclear and Cytoplasmic Extraction kit (Thermo Fisher Scientific). BCA assay was then used to determine protein concentration. Protein samples were loaded and run in 10% Tris-glycine SDS-PAGE, and then transferred onto a nitro-cellulose membrane (BioRad) using electroblotting. P65 (CST; 8242) (1:1000) was then used as primary antibody, and peroxidase-conjugated AffiniPure Goat Anti-Rabbit IgG (H+L) antibody (Jackson Immuno Research; 111-035-144) (1:10000) as secondary antibody, then blots were visualized using Thermo SuperSignal West Pico kit (Thermo Fisher Scientific). Lamin A/C (CST; 2032) were used as internal controls for nuclear fractions.
Next, the inventors carried out on-target validation for CU-CPT9a. […] By contrast, the expression of TRIF and IRF3 (cytoplasmic and nuclear) were only responsive to TLR4 and TLR3, independent of TLR8.
(Immunoblotting shows a protein as a band on a membrane.)

Assay [2] has as its system TNF-α production in PBMCs from an AOSD patient. Briefly: TNF-α level in PBMCs harvested from an AOSD patient. Format: cell-based, human. The procedure:
But there is a lack of appropriate rodent models because TLR8 is not functional in either mice or rats. Therefore, the TLR8 inhibitors of this disclosure were tested in human specimens harvested from patients with osteoarthritis (OA), rheumatoid arthritis (RA), and adult onset-Still's disease (AOSD). It is well established that TNF-α and IL-1β are key cytokines in the process of chronic joint inflammation in cartilage. Therefore, synovial cells were isolated from synovial tissue of patients who underwent joint replacement surgery due to severe OA. Previous studies have indicated these pathological tissues express both TLR7 and TLR8 with elevated production of various cytokines, contributing to extensive articular destruction and functional decline.

In assay [3] the test system is TNF-α production in PBMCs from RA patients. Briefly: TNF-α level in PBMCs harvested from RA patients. Format: cell-based, human. As to conditions: PBMCs from RA patients and one AOSD patient; dose-dependent.

For `Cc1cc(-c2ccnc3cc(O)ccc23)ccc1O` [Compound 11b, 2-Methyl-4-(7-hydroxyl-4-quinolinyl)-phenol], at mouse TLR9, the “activity against mouse TLR9” value is “no activity”.

For `COc1ccc2c(-c3ccc(O)c(C)c3)ccnc2c1` [Compound 11a, 2-Methyl-4-(7-methoxyl-4-quinolinyl)-phenol], the “activity against mouse TLR9” value at mouse TLR9 is on record as “no activity”. In addition, the “nuclear NF-κB” value in assay [1] (500 nM) was “significant reduction”. The “R848-induced elevation of downstream protein levels (p65, p-IRAK4, TRAF3)” value in assay [1] (dose-dependent, 0, 5, 50, 500 nM, 2 h) is on record as “reversed”. In addition, the “TNF-α level in PBMCs from an AOSD patient” value in assay [2] is reported as “dose-dependent suppression”. Besides, the “TNF-α level in patient PBMCs” value in assay [3] is on record as “significantly suppressed”.
